Here are results for 9 compounds from patent US20230126992A1, “Antibacterial Antiviral Pharmaceutical Composition and Application Thereof” (priority 2020, published 2023).

“And” between values parts separate entries of the source, which are not always exact repeats. Equal values may be shown once. Where a name gives a salt, the structure may show the parent alone. Read-outs that look alike come from different tables or passages of the source.

Series [1] deals with SARS-CoV-2. In words: Test of direct killing of virus. The class given is cell-based.
In series [2] the test system is Vero E6 cells. Kind of series: Toxicity test to Vero E6 cells (CCK8). Particulars: 3 days.
The subject of series [3] is SARS-CoV-2. Particulars: for Inhibition rate to SARS-CoV-2 induced cell death: drug 1 hour after infection.
The test system of series [4] is SARS-CoV-2. In words: Inhibition of Vero E6 cell death induced by SARS-CoV-2, simultaneous addition of drug and virus. Particulars: for Inhibition rate to SARS-CoV-2 induced cell death: simultaneous addition.
Series [5] deals with SARS-CoV-2. In words: microbe, parasite or virus in culture.
In series [6] the test system is tracheal excretion of phenol red of mice. Kind of series: Tracheal excretion of phenol red in mice. The conditions noted are these: dose 30 mg/kg intragastric, 7 days; 546 nm.
Series [7] deals with asthma of guinea pigs induced by acetylcholine and histamine phosphate. In words: Asthmatic guinea pigs induced by acetylcholine combined with histamine phosphate (Example 3).
The test system is the same in series [8]. Kind of series: Asthmatic guinea pigs induced by acetylcholine combined with histamine phosphate (Example 9).
The test system of series [9] is LPS-induced fever in rats. Kind of series: LPS induced rat fever model. Particulars: dose 200 mg/kg.
The test system of series [10] is capillary discharge sputum volume in rats. Kind of series: Capillary discharge sputum volume in rats (Example 9). Particulars: dose 0.2 g/kg intragastric, 7 days.
Series [11] shares this test system. In words: Capillary discharge sputum volume in rats (Example 3). The conditions noted are these: dose 200 mg/kg intragastric, 7 days; 2 h collection.
In series [12] the test system is acute pharyngitis rats. In words: Acute pharyngitis model in rat, serum IL-6 and TNF-α by ELISA. Particulars: dose 5 mg/kg, 3 days.
Series [13] relates to influenza virus FM1. It counts as in vivo, ICR mice.
Series [14] concerns influenza virus FM1. The class given is in vivo, ICR mice. Particulars: dose 27.5 mg/kg, 7 days.
For series [15], the system named is influenza virus FM1. The class given is in vivo, ICR mice. The conditions noted are these: dose 27.5 mg/kg.
Series [16] relates to concentrated ammonia water induced cough in mice. In words: Concentrated ammonia water induced cough test in mice (Example 3). It counts as in vivo, ICR mice. The conditions noted are these: dose 20 mg/kg intragastric, 7 d.
For series [17] the test system is unchanged. Kind of series: Concentrated ammonia water induced cough test in mice (Example 9, dropping pills). Particulars: dose 0.02 g/kg intragastric, 7 days. It counts as in vivo, ICR mice.
Setting [18] is: addition of the drug after infection.
Setting [19] is: concentration 0.064 μM, 0.064 µM.
Where [20] appears, read: simultaneous addition of the drug and virus.
Where [21] appears, read: dose 60 mg/kg intragastric, 7 d.
Setting [22] is: dose 0.06 g/kg intragastric, 7 days.
Where [23] appears, read: lung tissue homogenate, dose 27.5.

As for `OO` [Example H2O2, H2O2], the “Inhibition rate (killing effect)” value was 82.13 ± 8.64% and 92.94 ± 6.31% in series [1] (0.01% incubated with virus 0 min); 98.16 ± 18.42% and 99.25 ± 2.95% in [1] (0.01% incubated with virus 5 min); 89.87 ± 7.26% and 98.25 ± 2.36% in series [1] (0.01% incubated with virus 10 min); 102.74 ± 8.56% and 102.50 ± 14.39% in series [1] (0.01% incubated with virus 30 min); 95.28 ± 10.93% and 101.35 ± 11.45% in series [1] (0.01% incubated with virus 60 min).

Turning to `CCC(CC)COC(=O)[C@H](C)N[P@](=O)(OC[C@H]1O[C@@](C#N)(c2ccc3c(N)ncnn23)[C@H](O)[C@@H]1O)Oc1ccccc1` [Remdesivir], the Cell survival rate in series [2] (concentration 0.064 μM) was 101.58 ± 3.33% and 95.44 ± 10.01%; in [2] (concentration 0.32 μM), 99.55 ± 10.53% and 93.59 ± 6.96%; in series [2] (concentration 1.6 μM), 91.37 ± 10.73% and 98.11 ± 7.16%; in [2] (concentration 8 μM) it was 87.35 ± 4.25% and 90.08 ± 1.88%; in series [2] (concentration 40 μM), 76.24 ± 8.59% and 77.22 ± 11.23%; in series [2] (concentration 200 μM), 53.84 ± 3.48% and 71.58 ± 3.12%. Besides, the IC50 (in general, the concentration at which inhibition is half-maximal) is 734 nM and 915 nM in series [3] (setting [18]); 1120 ± 52 nM in [4] (Severe acute respiratory syndrome coronavirus 2, Vero C1008, simultaneous addition of the drug and virus); 1160 nM and 1080 nM in [4] (setting [20]); 825 ± 128 nM in [5] (Severe acute respiratory syndrome coronavirus 2, Vero C1008, addition of the drug after infection). In addition, the “TI (CC50/IC50)” value in [3] (setting [18]) is listed as above 242.42; in series [4] (setting [20]), above 178.89. In addition, the “Inhibition rate to SARS-CoV-2 induced cell death” value was 6.51 ± 7.08% in series [3] (setting [19]); 28.39 ± 11.56% in series [3] (concentration 0.32 μM, 0.32 µM); 53.50 ± 3.37% in series [3] (concentration 1.6 μM, 1.6 µM); 92.29 ± 6.68% in series [3] (concentration 8 μM, 8 µM); 94.31 ± 5.01% in [3] (concentration 40 μM, 40 µM); 98.83 ± 2.97% in series [3] (concentration 200 μM, 200 µM). Besides, the “Inhibition rate to SARS-CoV-2 induced cell death” value in [4] (setting [19]) was 2.80 ± 2.11% and 9.23 ± 5.11%; in series [4] (concentration 0.32 μM, 0.32 µM), 26.39 ± 6.35%; in [4] (concentration 1.6 μM, 1.6 µM), 59.24 ± 13.49%; in series [4] (concentration 8 μM, 8 µM), 78.78 ± 9.66%; in series [4] (concentration 40 μM, 40 µM), 91.04 ± 3.06%; in series [4] (concentration 200 μM, 200 µM), 94.82 ± 0.89%. Moreover, the inhibition (as a rule, the change of the read-out against control, counted positive when it falls) at 0.32 µM in series [4] (Severe acute respiratory syndrome coronavirus 2, Vero C1008, read-out: Inhibition rate to SARS-CoV-2 induced cell death, simultaneous addition, concentration 0.32 μM) is 21.3 ± 12.8%; in [5] (Severe acute respiratory syndrome coronavirus 2, Vero C1008, 1 h, read-out: Inhibition rate to SARS-CoV-2 induced cell death, drug 1 hour after infection, concentration 0.32 μM) it was 46.3 ± 15.2%. The inhibition at 1.6 µM worked out at 56 ± 7.66% in series [4] (Severe acute respiratory syndrome coronavirus 2, Vero C1008, read-out: Inhibition rate to SARS-CoV-2 induced cell death, simultaneous addition, concentration 1.6 μM) and 61.5 ± 6.96% in series [5] (Severe acute respiratory syndrome coronavirus 2, Vero C1008, 1 h, read-out: Inhibition rate to SARS-CoV-2 induced cell death, drug 1 hour after infection, concentration 1.6 μM). Besides, the inhibition at 8 µM was 89.2 ± 1.29% in series [4] (Severe acute respiratory syndrome coronavirus 2, Vero C1008, read-out: Inhibition rate to SARS-CoV-2 induced cell death, simultaneous addition, concentration 8 μM) and 73.4 ± 3.67% in series [5] (Severe acute respiratory syndrome coronavirus 2, Vero C1008, 1 h, read-out: Inhibition rate to SARS-CoV-2 induced cell death, drug 1 hour after infection, concentration 8 μM). In addition, the inhibition at 40 µM in series [4] (Severe acute respiratory syndrome coronavirus 2, Vero C1008, read-out: Inhibition rate to SARS-CoV-2 induced cell death, simultaneous addition, concentration 40 μM) was found to be 95.8 ± 8.77%; in series [5] (Severe acute respiratory syndrome coronavirus 2, Vero C1008, 1 h, read-out: Inhibition rate to SARS-CoV-2 induced cell death, drug 1 hour after infection, concentration 40 μM), 91.2 ± 9.91%. The inhibition at 200 µM was determined as 98.9 ± 3.47% in series [4] (Severe acute respiratory syndrome coronavirus 2, Vero C1008, read-out: Inhibition rate to SARS-CoV-2 induced cell death, simultaneous addition, concentration 200 μM) and 100 ± 9.98% in series [5] (Severe acute respiratory syndrome coronavirus 2, Vero C1008, 1 h, read-out: Inhibition rate to SARS-CoV-2 induced cell death, drug 1 hour after infection, concentration 200 μM). The inhibition at 0.064 µM in [5] (Severe acute respiratory syndrome coronavirus 2, Vero C1008, 1 h, read-out: Inhibition rate to SARS-CoV-2 induced cell death, drug 1 hour after infection, concentration 0.064 μM) was 7.48 ± 11.8%.

Consider `Nc1c(Br)cc(Br)cc1CN[C@H]1CC[C@H](O)CC1` [ambroxol hydrochloride], for which the “Tracheal excretion amount of phenol red” value in [6] amounted to 0.566 ± 0.201 OD value.

On to `Cn1c(=O)c2[nH]cnc2n(C)c1=O` [aminophylline], for which, in series [7] (60 mg/kg group, before administration (baseline)), the “asthma incubation period, Pre-administration” value is 33.1 ± 9.2 s. For the same compound, the “asthma incubation period, Post-administration” value in [7] (setting [21]) was found to be 123.4 ± 50.3 s; in [8] (setting [22]) it was 95.3 ± 37.6 s. In addition, the “asthma incubation period, extension value (post-pre)” value in series [7] (setting [21]) came out at 90.3 ± 51.1 s; in series [8] (setting [22]), 58.4 ± 32.1 s. In addition, the “Asthma incubation period, pre-administration” value in [8] (0.06 g/kg group, before administration (baseline)) is 36.9 ± 5.8 s.

Consider `CC(=O)Oc1ccccc1C(=O)O` [aspirin], for which the “Temperature difference (ΔT)” value in series [9] (1 h after LPS) was 0.10 ± 0.34 °C; in [9] (2 h after LPS), 0.43 ± 0.29 °C; in series [9] (3 h after LPS) it was 0.42 ± 0.24 °C; in series [9] (4 h after LPS), 0.46 ± 0.34 °C; in [9] (5 h after LPS) it was 0.79 ± 0.17 °C; in [9] (6 h after LPS), 0.88 ± 0.18 °C. Further, the “Temperature difference (ΔT)” value in [9] (7 h after LPS) is 0.53 ± 0.24 °C.

Turning to `N[C@@H](CSCC(=O)O)C(=O)O` [carbocisteine], the Sputum excretion volume in series [10] is reported as 21.56 ± 4.41 cm; in series [11], 18.11 ± 4.32 cm.

Consider `C[C@@H]1C[C@H]2[C@@H]3CCC4=CC(=O)C=C[C@]4(C)[C@@]3(F)[C@@H](O)C[C@]2(C)[C@@]1(O)C(=O)CO` [dexamethasone], for which, in [12], the IL-6 was 146.3 ± 10.4 pg/mL and the TNF-α is 218.2 ± 5.8 pg/mL.

In [13] (dose 27.5 mg/kg intraperitoneal, 7 days), `CCOC(=O)C1=C[C@@H](OC(CC)CC)[C@H](NC(C)=O)[C@@H](N)C1` [oseltamivir] showed a Lung index of 0.89 ± 0.20. Moreover, in series [13] (setting [23]), the IL-8 was 80.3 ± 15.3 pg/mL and the TNF-α is 65.2 ± 17.5 pg/mL. Besides, in series [14], the Lung index amounted to 0.95 ± 0.13 and the “Lung index inhibition rate” value is 41.0%. The Lung index in [15] is 0.89 ± 0.17.

`CCN(CC)CCOCCOC(=O)C1(c2ccccc2)CCCC1` [pentoxyverine citrate]: in series [16], the Cough incubation period is listed as 26.3 ± 3.3 s and the Frequency of cough is 55.8 ± 14.7 time/2 min. In series [17], this compound displayed a Cough incubation period of 23.3 ± 4.2 s and a Frequency of cough of 40.6 ± 12.5 time/2 min.
